Measurements published in ChEMBL document CHEMBL6182942, “Discovery of a Selective, Novel TGF-βR1 Inhibitor GFH018 for the Treatment of Solid Tumors” (J Med Chem, 2025).

Key:
[1] = Metabolic stability in mouse liver microsomes assessed as parent compound remaining at 1 uM preincubated for 5 mins followed by NADPH addition by LC-MS/MS analysis; assay type: ADME, Microsome; settings: read-out: Stability
[2] = Half life in CD-1 mouse at 1 mg/kg, iv by LC-MS/MS analysis; assay type: ADME, organism-based; settings: in vivo
[3] = target: Mitogen-activated protein kinase 14 (Homo sapiens, UniProt Q16539); assay: Inhibition of p38alpha (unknown origin) measured after 40 mins in presence of [gamma-33P]ATP by microbeta liquid scintillation counting analysis; assay type: toxicity
Mitogen-activated protein kinase 14, sequence (Q16539 whole entry): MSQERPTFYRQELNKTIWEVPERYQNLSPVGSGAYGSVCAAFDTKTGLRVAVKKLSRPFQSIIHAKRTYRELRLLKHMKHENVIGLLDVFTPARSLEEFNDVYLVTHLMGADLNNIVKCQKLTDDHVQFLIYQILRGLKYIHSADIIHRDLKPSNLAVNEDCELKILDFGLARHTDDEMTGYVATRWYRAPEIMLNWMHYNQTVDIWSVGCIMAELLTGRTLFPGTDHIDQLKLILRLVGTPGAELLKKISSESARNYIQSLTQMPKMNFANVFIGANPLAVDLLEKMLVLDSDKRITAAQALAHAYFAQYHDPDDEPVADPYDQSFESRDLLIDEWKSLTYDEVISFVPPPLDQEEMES

[4] = AUC (0 to last) in CD-1 mouse at 5 mg/kg, po via gavage by LC-MS/MS analysis; assay type: ADME, organism-based; settings: in vivo
[5] = Half life in CD-1 mouse at 5 mg/kg, po via gavage by LC-MS/MS analysis; assay type: ADME, organism-based; settings: in vivo
[6] = Apparent permeability across apical to basolateral side in dog MDCK-MDR1 cells at 2 uM measured over 150 mins by LC-MS/MS analysis; assay type: ADME, cell-based, Canis lupus familiaris
NIH3T3 = assay: Antiproliferative activity against mouse NIH/3T3 cells by celltitter-glo assay; assay type: functional, cell-based
TGF-beta receptor type-1 = target: T1, TGF-beta receptor type-1 (Homo sapiens, UniProt P36897); assay: Inhibition of TGFbetaR1 (unknown origin) in presence of ATP
T1 sequence (P36897 whole entry): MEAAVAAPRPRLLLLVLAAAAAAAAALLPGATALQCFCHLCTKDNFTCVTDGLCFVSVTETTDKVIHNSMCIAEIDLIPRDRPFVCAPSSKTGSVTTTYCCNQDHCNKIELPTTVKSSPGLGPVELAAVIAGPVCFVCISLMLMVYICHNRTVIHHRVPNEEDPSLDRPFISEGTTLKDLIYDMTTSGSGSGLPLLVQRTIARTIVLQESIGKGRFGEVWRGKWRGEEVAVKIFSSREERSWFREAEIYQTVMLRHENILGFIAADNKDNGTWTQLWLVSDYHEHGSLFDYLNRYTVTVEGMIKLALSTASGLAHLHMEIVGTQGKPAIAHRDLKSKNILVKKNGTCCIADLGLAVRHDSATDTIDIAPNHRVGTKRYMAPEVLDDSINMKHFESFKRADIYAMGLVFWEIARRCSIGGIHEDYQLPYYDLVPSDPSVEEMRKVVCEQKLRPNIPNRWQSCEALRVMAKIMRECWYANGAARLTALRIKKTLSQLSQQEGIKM

[7] = Volume of distribution at steady state in CD-1 mouse at 1 mg/kg, iv by LC-MS/MS analysis; assay type: ADME, organism-based; settings: in vivo, read-out: Vdss
[8] = Cmax in CD-1 mouse at 5 mg/kg, po via gavage by LC-MS/MS analysis; assay type: ADME, organism-based; settings: in vivo
[9] = Clearance in CD-1 mouse at 1 mg/kg, iv by LC-MS/MS analysis; assay type: ADME, organism-based; settings: in vivo
[10] = Oral bioavailability in CD-1 mouse at 5 mg/kg via gavage by LC-MS/MS analysis; assay type: ADME, organism-based; settings: in vivo
MDR1 = assay: Efflux ratio of apparent permeability in dog MDCK-MDR1 cells at 2 uM measured over 150 mins by LC-MS/MS analysis; assay type: ADME, cell-based, Canis lupus familiaris
[11] = Metabolic stability in human liver microsomes assessed as parent compound remaining at 1 uM preincubated for 5 mins followed by NADPH addition by LC-MS/MS analysis; assay type: ADME, Microsome; settings: read-out: Stability
Homo sapiens = species: Homo sapiens; assay: Selectivity ratio of IC50 for p38alpha (unknown origin) to IC50 for TGFbetaR1 (unknown origin)

Structure (SMILES)	IC50 [3] [µM]	IC50 (TGF-beta receptor type-1) [nM]	further results
Cc1cccc(-c2nn3c(c2-c2ccc4ncnn4c2/C=C/C(C)(C)O)CCC3)n1	> 10	83	remaining at 1 µM [1]: 7.8%; half-life [2]: 7.74 min; AUClast [4]: 104 nM.hr/ml; half-life [5]: 50.5 min; Papp A→B at 2.5 h, 2 µM [6]: 8.48 ×10⁻⁶ cm/s; IC50 (NIH3T3): 1620 nM; Vd [7]: 0.849 L/kg; Cmax [8]: 170 nM/ml; clearance [9]: 105 mL/min/kg; bioavailability [10]: 5.48%; efflux ratio at 2.5 h, 2 µM (MDR1): 6.12; remaining at 1 µM [11]: 54.8%
CNC(=O)/C=C/c1c(-c2c(-c3cccc(C)n3)nn3c2CCC3)ccc2ncnn12	> 3.33	248	Ratio IC50 (Homo sapiens): > 13
Cc1cccc(-c2nn3c(c2-c2cn(C)c(=O)c4ccc(C(N)=O)cc24)CCC3)n1		> 5000	
Cc1cccc(-c2nn3c(c2-c2ccc4ncnn4c2/C=C/C(=O)NC2CC2)CCC3)n1	5.21	279	Ratio IC50 (Homo sapiens): 18.6
Cc1cccc(-c2nn(C3CCCC3)cc2-c2ccc3ncnn3c2/C=C/C(N)=O)n1		276	
Cc1cccc(-c2nn3c(c2-c2ccc4ncnn4c2CN2CC(O)C2)CCC3)n1		> 5000	
Cc1cccc(-c2nn3c(c2-c2ccnc(NC4CCN(C(N)=O)CC4)c2)CCC3)n1		> 5000	
Cc1cccc(-c2nn3c(c2-c2ccnc4ccc(C(N)=O)cc24)CCC3)n1 [GALUNISERTIB]	0.783		
CCOC(=O)/C=C/c1c(-c2c(-c3cccc(C)n3)nn3c2CCC3)ccc2ncnn12	5.91	324	Papp A→B at 2.5 h, 2 µM [6]: 19.4 ×10⁻⁶ cm/s
Cc1cccc(-c2nn3c(c2-c2ccnc(Nc4ccc(C(N)=O)cc4)c2)CCC3)n1	0.026	90.9	Ratio IC50 (Homo sapiens): 0.3
Cc1cccc(-c2nn(Cc3cccc(C#N)c3)cc2-c2ccc3ncnn3c2C=CC(N)=O)n1	> 3.33	223	remaining at 1 µM [1]: 9.8%; IC50 (NIH3T3): 1660 nM; remaining at 1 µM [11]: 56.2%
Cc1cccc(-c2nn3c(c2-c2ccc(F)c4c2CN(C(N)=O)CC4)CCC3)n1		> 5000	
Cc1nc(-c2nn3c(c2-c2ccc4ncnn4c2/C=C/C(N)=O)CCC3)ccc1Cl		4890	
Cc1cccc(-c2nn3c(c2-c2ccc4ncnn4c2CN2CCNC(=O)C2)CCC3)n1		> 5000	
CCNC(=O)/C=C/c1c(-c2c(-c3cccc(C)n3)nn3c2CCC3)ccc2ncnn12	4.75	312	Ratio IC50 (Homo sapiens): 15.2
Cc1cccc(-c2nn3c(c2-c2ccc4ncsc4c2/C=C/C(N)=O)CCC3)n1	0.476	207	Ratio IC50 (Homo sapiens): 2.3
Cc1cccc(-c2nn3c(c2-c2ccnc(-c4cccc(C(N)=O)c4)c2)CCC3)n1		3460	
